Several values for one entry are separate records, joined by “and”; a condition that tells them apart may be missing. Identical values can stand only once. Like-named read-outs stand apart in the source and are kept apart here.
Columns and labels:
MHV [1] = experiment: microbe, parasite or virus in culture; format: cell-based, mouse hepatitis virus (MHV); details: Murine coronavirus, 24 h, read-out: EC50 (IFA)
WIV1 [2] = experiment: microbe, parasite or virus in culture; format: cell-based, bat coronavirus WIV1; details: Bat coronavirus, 48 h, read-out: EC50 (IFA)
HCoV-NL63 = experiment: In vitro antiviral activity assay (IFA), HCoV-NL63; format: cell-based; details: for Inhibition rate (IFA): Fig 5C, MOI 0.1, 48 h
SARS-CoV-2 wild-type = experiment: microbe, parasite or virus in culture; format: cell-based
MHV [3] = format: cell-based, mouse hepatitis virus (MHV)
MHV [4] = system: MHV
HCoV-229E = experiment: In vitro antiviral activity assay (IFA), HCoV-229E; format: cell-based; details: for Inhibition rate (IFA): Fig 5F, MOI 0.1, 48 h
WIV1 [5] = format: cell-based, bat coronavirus WIV1
[6] = format: cell-based
SARS-CoV-2 Omicron BA.5 = experiment: microbe, parasite or virus in culture; format: cell-based; details: Severe acute respiratory syndrome coronavirus 2, 24 h, read-out: EC50 (IFA)
HCoV-OC43 = experiment: In vitro antiviral activity assay (IFA), HCoV-OC43; format: cell-based; details: for Inhibition rate (IFA): Fig 5E, MOI 0.1, 48 h
MHV [7] = experiment: microbe, parasite or virus in culture; details: Murine coronavirus, 24 h, read-out: EC50, rescue of coronavirus-induced cytopathic effects
[8] = target: M146 (SARS-CoV-2 M 135-146 peptide fused with HIV-TAT) (HIV | SARS-CoV-2) (UniProt P0DTC5); experiment: SPR
[9] = target: M161 (SARS-CoV-2 M 135-161 peptide fused with HIV-TAT) (HIV | SARS-CoV-2) (UniProt P0DTC5); experiment: SPR
Chain of M161 (SARS-CoV-2 M 135-161 peptide fused with HIV-TAT) (HIV | SARS-CoV-2) (P0DTC5 135-161 limits assumed): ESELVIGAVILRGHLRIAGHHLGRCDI

[10] = target: M146 (SARS-CoV-2 M 135-146 peptide fused with HIV-TAT) (HIV | SARS-CoV-2) (UniProt P0DTC5); experiment: SPR; remark: listed apart in the source
[11] = target: M161 (SARS-CoV-2 M 135-161 peptide fused with HIV-TAT) (HIV | SARS-CoV-2) (UniProt P0DTC5); experiment: SPR; remark: listed apart in the source

Chain of hHGS 1-390-6 × HIS protein (O14964 1-390): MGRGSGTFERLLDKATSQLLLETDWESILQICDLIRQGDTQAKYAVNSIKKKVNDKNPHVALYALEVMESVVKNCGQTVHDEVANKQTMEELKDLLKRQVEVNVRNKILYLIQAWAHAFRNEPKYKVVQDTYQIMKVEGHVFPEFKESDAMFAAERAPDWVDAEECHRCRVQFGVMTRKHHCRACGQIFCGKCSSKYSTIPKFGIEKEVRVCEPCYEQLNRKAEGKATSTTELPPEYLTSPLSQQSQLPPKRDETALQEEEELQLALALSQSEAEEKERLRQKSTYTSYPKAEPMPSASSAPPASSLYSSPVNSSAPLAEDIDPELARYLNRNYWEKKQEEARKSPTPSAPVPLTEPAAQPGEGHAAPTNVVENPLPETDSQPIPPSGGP

Molecule: CCC(CC)COC(=O)[C@H](C)N[P@](=O)(OC[C@H]1O[C@@](C#N)(c2ccc3c(N)ncnn23)[C@H](O)[C@@H]1O)Oc1ccccc1 [RDV, remdesivir]
- EC50 (MHV [1]): 1290 nM
- EC50 (WIV1 [2]): 2420 nM
- Inhibition rate (IFA) (HCoV-NL63; conc 10 (unit not given)): -13.7402% and -16.2366% and -15.0261%
- Inhibition rate (IFA) (HCoV-NL63; conc 300 (unit not given)): 80.1311% and 63.4462% and 86.5422%
- Inhibition rate (IFA) (HCoV-NL63; conc 1000 (unit not given)): 98.8533% and 99.4472% and 99.9344%
- Inhibition rate (IFA) (HCoV-NL63; conc 3000 (unit not given)): 99.4236% and 99.6729% and 98.5431%
- Inhibition rate (IFA) (HCoV-NL63; conc 10000 (unit not given)): 99.8898% and 100.315% and 100.324%
- Inhibition rate (IFA) (HCoV-NL63; conc 25000 (unit not given)): 100.095% and 100.184% and 100.326%
- EC50 (HCoV-NL63; Human coronavirus NL63, 48 h, read-out: EC50 (IFA)): 200 nM
- Inhibition rate (IFA) (SARS-CoV-2 wild-type): -18.2121%
- EC50 (SARS-CoV-2 wild-type; Severe acute respiratory syndrome coronavirus 2, 24 h, read-out: EC50 (IFA)): 3510 nM
- Extracellular MHV gRNA (Figure S11A) (MHV [3]; Ctr 17Cl-1 cells, 24 hpi): 1.417 and 1.434 and 1.4484
- Extracellular MHV gRNA (Figure S11A) (MHV [3]; Ctr 17Cl-1 cells, 48 hpi): 2.342 and 2.426 and 2.427
- Extracellular MHV gRNA (Figure S11A) (MHV [3]; Ctr 17Cl-1 cells, 72 hpi): 2.913 and 2.938 and 2.965
- Extracellular MHV gRNA (Figure S11A) (MHV [3]; Hgs-KO1 17Cl-1 cells, 24 hpi): 0.1732 and 0.2504 and 0.2945
- Extracellular MHV gRNA (Figure S11A) (MHV [3]; Hgs-KO1 17Cl-1 cells, 48 hpi): 0.5159 and 0.4955 and 0.5011
- Extracellular MHV gRNA (Figure S11A) (MHV [3]; Hgs-KO1 17Cl-1 cells, 72 hpi): 0.5763 and 0.5575 and 0.5302
- Extracellular MHV gRNA (Figure S11A) (MHV [3]; Hgs-KO2 17Cl-1 cells, 48 hpi): 0.243 and 0.2742 and 0.2718
- Extracellular MHV gRNA (Figure S11A) (MHV [3]; Hgs-KO2 17Cl-1 cells, 72 hpi): 0.4771 and 0.48 and 0.4728
- antiviral activity in Hgs-KO cells (MHV [3]; MHV, Hgs-KO 17Cl-1, RTB 25 μM or RDV 5 μM, compared with DMSO-treated Hgs-KO cells): maintained potent antiviral activity
- viability of infected cells (rescue of cytopathic effect), Figures S9G-L (MHV [4]; concentration 10): 46.7323 and 45.5347 and 44.3372
- viability of infected cells (rescue of cytopathic effect), Figures S9G-L (MHV [4]; concentration 30): 45.5347 and 43.8916 and 43.4181
- viability of infected cells (rescue of cytopathic effect), Figures S9G-L (MHV [4]; concentration 100): 50.492 and 47.7906 and 49.378
- viability of infected cells (rescue of cytopathic effect), Figures S9G-L (MHV [4]; concentration 300): 59.7939 and 57.0925 and 55.143
- viability of infected cells (rescue of cytopathic effect), Figures S9G-L (MHV [4]; concentration 1000): 78.2027 and 84.5804 and 83.9955
- viability of infected cells (rescue of cytopathic effect), Figures S9G-L (MHV [4]; concentration 3000): 102.237 and 100.176 and 102.46
- viability of infected cells (rescue of cytopathic effect), Figures S9G-L (MHV [4]; concentration 10000): 103.491 and 100.789 and 102.906
- viability of infected cells (rescue of cytopathic effect), Figures S9G-L (MHV [4]; concentration 25000): 101.903 and 103.017 and 102.042
- Inhibition rate (IFA) (HCoV-229E; conc 30 (unit not given)): -0.99% and -1.45% and 0.82%
- Inhibition rate (IFA) (HCoV-229E; conc 100 (unit not given)): -0.44% and -1.37% and -2.88%
- Inhibition rate (IFA) (HCoV-229E; conc 300 (unit not given)): 11.16% and 13% and 6.71%
- Inhibition rate (IFA) (HCoV-229E; conc 1000 (unit not given)): 47.55% and 40.71% and 45.97%
- Inhibition rate (IFA) (HCoV-229E; conc 3000 (unit not given)): 81.01% and 82.05% and 81.07%
- Inhibition rate (IFA) (HCoV-229E; conc 10000 (unit not given)): 97.22% and 97.53% and 97.6%
- Inhibition rate (IFA) (HCoV-229E; conc 25000 (unit not given)): 98.73% and 98.28%
- EC50 (HCoV-229E; Human coronavirus 229E, 48 h, read-out: EC50 (IFA)): 1010 nM
- extracellular viral gRNA levels (RT-qPCR) (WIV1 [5]): 1.00 and 2.00
- Inhibition, time-of-drug-addition (Figures S12A, S12B) ([6]; 1h, concentration 30 (unit not given)): 5.191 and 6.604 and 3.913
- Inhibition, time-of-drug-addition (Figures S12A, S12B) ([6]; 1h, concentration 300 (unit not given)): 29.4212 and 36.852 and 30.2123
- Inhibition, time-of-drug-addition (Figures S12A, S12B) ([6]; 1h, concentration 1000 (unit not given)): 94.0553 and 94.9808 and 93.9778
- Inhibition, time-of-drug-addition (Figures S12A, S12B) ([6]; 1h, concentration 3000 (unit not given)): 100.171 and 99.7032 and 100.277
- Inhibition, time-of-drug-addition (Figures S12A, S12B) ([6]; 1h, concentration 10000 (unit not given)): 100.334 and 99.9318 and 99.6732
- Inhibition, time-of-drug-addition (Figures S12A, S12B) ([6]; 1h, concentration 25000 (unit not given)): 99.7405 and 99.6154 and 100.895
- Inhibition, time-of-drug-addition (Figures S12A, S12B) ([6]; 3h, concentration 300 (unit not given)): 9.79 and 17.6203 and 16.0643
- Inhibition, time-of-drug-addition (Figures S12A, S12B) ([6]; 3h, concentration 1000 (unit not given)): 55.9963 and 60.6001 and 59.2495
- Inhibition, time-of-drug-addition (Figures S12A, S12B) ([6]; 3h, concentration 3000 (unit not given)): 88.3762 and 86.7679 and 87.568
- Inhibition, time-of-drug-addition (Figures S12A, S12B) ([6]; 3h, concentration 10000 (unit not given)): 90.2121 and 88.9101 and 87.2358
- Inhibition, time-of-drug-addition (Figures S12A, S12B) ([6]; 3h, concentration 25000 (unit not given)): 90.2507 and 90.1885 and 92.1218
- Inhibition, time-of-drug-addition (Figures S12A, S12B) ([6]; 5h, concentration 1000 (unit not given)): 25.3228 and 41.8171 and 37.9682
- Inhibition, time-of-drug-addition (Figures S12A, S12B) ([6]; 5h, concentration 3000 (unit not given)): 84.9456 and 81.9798 and 79.5741
- Inhibition, time-of-drug-addition (Figures S12A, S12B) ([6]; 5h, concentration 10000 (unit not given)): 96.9121 and 98.7645 and 101.081
- Inhibition, time-of-drug-addition (Figures S12A, S12B) ([6]; 5h, concentration 25000 (unit not given)): 101.735 and 102.093 and 102.226
- Inhibition, time-of-drug-addition (Figures S12A, S12B) ([6]; 7h, concentration 3000 (unit not given)): 42.654 and 32.1868 and 38.6066
- Inhibition, time-of-drug-addition (Figures S12A, S12B) ([6]; 7h, concentration 10000 (unit not given)): 72.2116 and 77.3057 and 82.6181
- Inhibition, time-of-drug-addition (Figures S12A, S12B) ([6]; 7h, concentration 25000 (unit not given)): 95.7566 and 91.5378 and 92.3496
- antiviral activity versus time of treatment start ([6]; RTB 25 μM or RDV 5 μM added at 0, 2, 4 or 6 hpi): decreased in a time-dependent manner
- cell viability, Figures S9A, B, D-F (17Cl-1 cells; concentration 0.01): 103.896 and 102.857
- cell viability, Figures S9A, B, D-F (17Cl-1 cells; concentration 0.03): 100
- cell viability, Figures S9A, B, D-F (17Cl-1 cells; concentration 0.1): 100
- cell viability, Figures S9A, B, D-F (17Cl-1 cells; concentration 0.3): 100
- cell viability, Figures S9A, B, D-F (17Cl-1 cells; concentration 1): 100
- cell viability, Figures S9A, B, D-F (17Cl-1 cells; concentration 3): 100
- cell viability, Figures S9A, B, D-F (17Cl-1 cells; concentration 10): 100
- cell viability, Figures S9A, B, D-F (17Cl-1 cells; concentration 25): 100
- EC50 (SARS-CoV-2 Omicron BA.5): 1730 nM
- EC50 (HCoV-OC43; Betacoronavirus 1, OC43, 48 h, read-out: EC50 (IFA)): 410 nM
- Inhibition rate (IFA) (HCoV-OC43; conc 10 (unit not given)): 50.23% and 41.56% and 35.15%
- Inhibition rate (IFA) (HCoV-OC43; conc 30 (unit not given)): 35.85% and 33.9% and 36.83%
- Inhibition rate (IFA) (HCoV-OC43; conc 100 (unit not given)): 54.42% and 40.68% and 45.58%
- Inhibition rate (IFA) (HCoV-OC43; conc 300 (unit not given)): 65.9% and 68.1% and 71.65%
- Inhibition rate (IFA) (HCoV-OC43; conc 1000 (unit not given)): 93.48% and 93.42% and 95.53%
- Inhibition rate (IFA) (HCoV-OC43; conc 3000 (unit not given)): 103.3% and 99.46% and 99.73%
- Inhibition rate (IFA) (HCoV-OC43; conc 10000 (unit not given)): 112.73% and 104.65% and 109.25%
- Inhibition rate (IFA) (HCoV-OC43; conc 25000 (unit not given)): 117.32% and 112.33% and 115.73%
- EC50 (MHV [7]): 690 nM

Molecule: hHGS 1-390-6 × HIS protein (from UniProt O14964 1-390) (domain or fragment)
- Kd [8]: 210 nM
- Kd [9]: 830 nM
- Kd [10]: 5.73 nM
- Kd [11]: 3.84 nM
